Common to all, as to assay type: biochemical
For experiment [1], the target named is T1, CpsG (HIS-CpsG) (Escherichia coli, UniProt P24175).
T1 construct: gene manB; His-tagged, recombinant from E. coli BL21(DE3), Ni-NTA and size exclusion; tag terminus printed as C-terminal in Methods
T1 sequence (P24175 1-456): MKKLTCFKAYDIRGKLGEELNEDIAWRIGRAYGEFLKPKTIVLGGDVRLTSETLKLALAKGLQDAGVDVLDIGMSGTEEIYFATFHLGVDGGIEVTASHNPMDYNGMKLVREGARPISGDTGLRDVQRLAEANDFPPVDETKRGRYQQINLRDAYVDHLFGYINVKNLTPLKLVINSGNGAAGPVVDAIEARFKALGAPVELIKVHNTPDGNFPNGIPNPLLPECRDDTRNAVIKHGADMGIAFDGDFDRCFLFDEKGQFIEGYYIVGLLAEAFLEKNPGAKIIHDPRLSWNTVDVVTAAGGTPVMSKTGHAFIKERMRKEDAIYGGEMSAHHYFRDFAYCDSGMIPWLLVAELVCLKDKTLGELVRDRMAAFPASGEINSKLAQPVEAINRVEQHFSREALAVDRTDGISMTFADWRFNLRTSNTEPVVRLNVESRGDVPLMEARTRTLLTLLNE
The experiment is described as follows: Glc1P conversion with and without cofactor by HPAEC-PAD. Conditions: 0.2 mg/mL Glc1,6diP, 0.66 mg/ml Glc1P, 10 mM Tris-HCl pH 8.0, 37 °C, 20 min.

In experiment [2] the target is T2, CCA00034 (HIS-CCA00034) (Chlamydia caviae, UniProt Q823R2).
T2 construct: gene CCA_00344; His-tagged, recombinant from E. coli BL21(DE3), Ni-NTA and size exclusion; tag printed as amino-terminal in Results but C-terminal in Methods; tag not reported cut
T2 sequence (Q823R2 entry or part of it): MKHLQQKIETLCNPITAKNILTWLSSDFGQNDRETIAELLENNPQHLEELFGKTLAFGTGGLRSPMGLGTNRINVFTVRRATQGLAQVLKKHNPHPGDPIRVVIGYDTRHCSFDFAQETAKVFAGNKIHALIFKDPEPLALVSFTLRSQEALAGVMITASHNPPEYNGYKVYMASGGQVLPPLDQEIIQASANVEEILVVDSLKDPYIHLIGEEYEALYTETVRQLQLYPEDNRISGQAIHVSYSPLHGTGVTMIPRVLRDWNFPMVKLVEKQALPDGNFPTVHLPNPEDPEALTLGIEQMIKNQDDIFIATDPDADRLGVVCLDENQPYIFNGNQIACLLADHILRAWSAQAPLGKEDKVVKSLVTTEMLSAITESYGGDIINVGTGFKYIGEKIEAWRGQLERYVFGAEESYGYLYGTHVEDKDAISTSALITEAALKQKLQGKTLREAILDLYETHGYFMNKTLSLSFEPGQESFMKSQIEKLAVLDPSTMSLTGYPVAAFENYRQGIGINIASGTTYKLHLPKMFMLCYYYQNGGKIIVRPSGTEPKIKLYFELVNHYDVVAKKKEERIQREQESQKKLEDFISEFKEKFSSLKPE
The experiment is described as follows: conversion to Glc6P by HPAEC-PAD. As to conditions: 0.66 mg/ml Glc1P, 0.1 mg/mL enzyme, 0.2 mg/mL Glc1,6diP (not required), 10 mM Tris-HCl pH 8.0, 37 °C, 20 min.

The target of the next experiment is T3, CT815 (HIS-CT815) (Chlamydia trachomatis, UniProt B0B944).
T3 construct: gene glmM; His-tagged, in pET28a, recombinant from E. coli BL21(DE3), Ni-NTA and size exclusion; tag printed as amino-terminal in Results but C-terminal in Methods
T3 sequence (B0B944 whole entry): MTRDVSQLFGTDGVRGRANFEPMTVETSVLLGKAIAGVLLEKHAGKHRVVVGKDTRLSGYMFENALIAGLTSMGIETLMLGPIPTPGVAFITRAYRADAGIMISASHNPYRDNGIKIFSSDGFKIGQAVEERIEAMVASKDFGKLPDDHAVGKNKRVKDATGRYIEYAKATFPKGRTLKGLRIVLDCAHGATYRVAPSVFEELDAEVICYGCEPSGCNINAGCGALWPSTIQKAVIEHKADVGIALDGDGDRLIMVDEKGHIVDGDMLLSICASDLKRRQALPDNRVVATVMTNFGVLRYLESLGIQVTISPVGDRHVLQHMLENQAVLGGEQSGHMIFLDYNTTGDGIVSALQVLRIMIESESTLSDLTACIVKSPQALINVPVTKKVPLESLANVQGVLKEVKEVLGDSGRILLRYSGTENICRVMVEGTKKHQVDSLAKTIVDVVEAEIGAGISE
Briefly: conversion to Glc6P by HPAEC-PAD. Conditions: 0.66 mg/ml Glc1P, 0.1 mg/mL enzyme, 0.2 mg/mL Glc1,6diP, 10 mM Tris-HCl pH 8.0, 37 °C, 20 min.

Experiment [3] addresses T1, CpsG (HIS-CpsG). Briefly: conversion to Glc6P by HPAEC-PAD. As to conditions: 0.66 mg/ml Glc1P, 0.1 mg/mL enzyme, 0.2 mg/mL Glc1,6diP, 10 mM Tris-HCl pH 8.0, 37 °C, 20 min.
In experiment [4] the target is T2, CCA00034 (HIS-CCA00034). The experiment is described as follows: reverse reaction to Glc1P by HPAEC-PAD. Conditions: 0.33 mg/ml Glc6P, 0.1 mg/mL enzyme, 0.2 mg/mL Glc1,6diP, 10 mM Tris-HCl pH 8.0, 37 °C, 20 min.

The values below come from publication doi:10.1101/2020.10.11.335026v1, “Acquisition of a type 3 secretion signal in an housekeeping enzyme shaped glycogen metabolism in Chlamydia” (biorxiv, 2020).

As to `O=P(O)(O)OC[C@H]1O[C@H](OP(=O)(O)O)[C@H](O)[C@@H](O)[C@@H]1O` [Glc1,6diP], the “Glc1P conversion with and without cofactor by HPAEC-PAD” value on CpsG (HIS-CpsG) [1] is “CpsG required the presence of Glc1,6diP for optimal conversion of Glc1P into Glc6P”.

For `O=P(O)(O)O[C@H]1O[C@H](CO)[C@@H](O)[C@H](O)[C@H]1O` [Glc1P], the entries for the “conversion to Glc6P by HPAEC-PAD” value on CCA00034 (HIS-CCA00034) [2], at CT815 (HIS-CT815) and at CpsG (HIS-CpsG) [3] were “Incubation of Glc1P in the presence of HIS-CCA00034 led to its full conversion into Glc6P”, “only low levels of Glc6P were detected in the presence of HIS-CT815” and “HIS-CpsG required the presence of Glc1,6diP to convert Glc1P into Glc6P”, respectively.

Regarding `O=P(O)(O)OC[C@H]1OC(O)[C@H](O)[C@@H](O)[C@@H]1O` (some centres unmarked) [Glc6P], the “reverse reaction to Glc1P by HPAEC-PAD” value at CCA00034 (HIS-CCA00034) [4] is given as “very low amounts of Glc1P were detected after incubation with HIS-CCA00034 or HIS-CpsG”.
